Data from patent US20250059174A1, “Pharmaceutical Compounds and Compositions as C-Kit Kinase Inhibitors” (Enanta Pharmaceuticals, Inc., priority 2023, published 2025).

Target: Recombinant human c-KIT kinase (Homo sapiens (Human), UniProt P10721)
Assay: c-KIT kinase chemiluminescence assay (ADP-Glo)
Type: biochemical
Details: ATP 50 μM
How it was run: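 ADP formed by c-KIT on polyEY over 2 h at RT (after 30 min enzyme preincubation; Tris pH 7.5, MgCl2, BSA, DTT buffer) was detected by ADP-Glo luminescence. IC50 and Hill slope were fitted to control-normalized activity across compound concentrations.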

Chain of Recombinant human c-KIT kinase (P10721 26-976): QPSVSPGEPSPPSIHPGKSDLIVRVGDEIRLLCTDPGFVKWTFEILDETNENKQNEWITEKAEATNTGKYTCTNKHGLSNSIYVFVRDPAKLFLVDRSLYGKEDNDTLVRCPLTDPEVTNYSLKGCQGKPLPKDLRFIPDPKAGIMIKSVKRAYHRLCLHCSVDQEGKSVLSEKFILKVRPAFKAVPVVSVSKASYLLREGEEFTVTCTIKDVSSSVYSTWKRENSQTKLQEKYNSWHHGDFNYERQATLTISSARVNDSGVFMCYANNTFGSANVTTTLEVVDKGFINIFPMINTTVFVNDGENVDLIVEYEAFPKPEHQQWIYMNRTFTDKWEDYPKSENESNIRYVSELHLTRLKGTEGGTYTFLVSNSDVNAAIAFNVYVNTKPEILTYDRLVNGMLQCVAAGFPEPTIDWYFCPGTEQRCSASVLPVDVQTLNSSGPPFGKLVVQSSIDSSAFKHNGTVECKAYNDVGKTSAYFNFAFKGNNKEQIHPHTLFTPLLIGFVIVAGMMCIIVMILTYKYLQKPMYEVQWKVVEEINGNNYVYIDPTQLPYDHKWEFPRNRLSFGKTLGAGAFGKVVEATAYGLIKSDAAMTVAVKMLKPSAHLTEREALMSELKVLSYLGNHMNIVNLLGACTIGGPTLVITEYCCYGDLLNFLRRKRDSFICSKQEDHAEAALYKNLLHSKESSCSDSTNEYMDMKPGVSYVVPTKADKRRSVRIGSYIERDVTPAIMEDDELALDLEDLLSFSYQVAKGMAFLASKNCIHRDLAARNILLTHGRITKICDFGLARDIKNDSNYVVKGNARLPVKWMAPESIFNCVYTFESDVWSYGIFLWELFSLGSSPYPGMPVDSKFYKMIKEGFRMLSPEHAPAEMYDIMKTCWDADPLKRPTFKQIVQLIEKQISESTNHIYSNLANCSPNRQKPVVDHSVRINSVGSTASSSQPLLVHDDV

Row | IC50 [µM] | Structure (SMILES)
1 | > 1 | Cc1ncc(-c2noc(C3CN(C(=O)C4CC4)C3)n2)cc1NC(=O)c1cnn2ccc(N3CC4(C3)CC(O)(C(F)F)C4)cc12 [Example 281-86]
2 | 0.1 to 1 | Cc1ccc(-c2noc([C@H]3C[C@@H]3F)n2)cc1NC(=O)c1cnc(-c2ccc3nc[nH]c3c2)o1 [Example 308-39]
3 | 0.1 to 1 | Cc1ncc(-c2noc(C3(F)CN(C(=O)C(C)(F)F)C3)n2)cc1NC(=O)c1cnn2ccc(N3CC4(C3)CC(O)(C(F)F)C4)cc12 [Example 281-103]
4 | 0.1 to 1 | Cc1ncc(-c2ccc(OC(F)F)cn2)cc1NC(=O)c1cnn2ccc(N3CC4(C3)CC(O)(C(F)F)C4)cc12 [Example 331]
5 | 0.1 to 1 | Cc1sc(-c2noc(C3CN(C(=O)[C@H]4C[C@@H]4F)C3)n2)cc1NC(=O)c1cnn2ccc(N3CC4(C3)CC(O)(C(F)F)C4)cc12 [Example 281-127]
6 | < 0.1 | Cc1ccc(-c2ncc(OC(F)(F)F)cn2)cc1NC(=O)c1cnn2ccc(N3CC4(C3)CC(O)(C(F)F)C4)cc12 [Example 315]
7 | < 0.1 | Cc1ccc(-c2noc([C@H]3C[C@@H]3F)n2)cc1NC(=O)c1cnn2ccc(N3CC4(CN(C(=O)OC(C)(C)C)C4)C3)cc12 [Example 207]
8 | > 1 | Cc1ccc(-c2noc([C@H]3C[C@@H]3F)n2)cc1NC(=O)c1ccc2[nH]c(=O)[nH]c2c1 [Example 98-7]
9 | < 0.1 | Cc1ccc(-c2noc([C@H]3C[C@@H]3F)n2)cc1NC(=O)c1cnn2ccc(N3CC4(CNC(=O)C4)C3)cc12 [Example 178]
10 | 0.1 to 1 | Cc1ccc(-c2noc([C@H]3C[C@@H](OC(F)F)C3)n2)cc1NC(=O)c1cnn2ccc(N3CC4(CCN(CC(F)F)C4)C3)cc12 [Example 248]
11 | < 0.1 | Cc1ccc(-c2noc([C@H]3C[C@@H]3F)n2)cc1NC(=O)c1cnc(-c2ccc3[nH]c(=O)[nH]c3c2)o1 [Example 302]
12 | < 0.1 | Cc1cc(C)c(-c2ccn3ncc(C(=O)Nc4cc(-c5noc([C@H]6C[C@@H]6F)n5)ccc4C)c3c2)cn1 [Example 171-26]
13 | < 0.1 | Cc1ccc(-c2noc([C@H]3C[C@@H]3F)n2)cc1NC(=O)c1cnn2ccc(C=O)cc12 [Example 71]
14 | < 0.1 | Cc1ccc(-c2noc([C@H]3C[C@@H]3F)n2)cc1NC(=O)c1cnc(-c2ccc3[nH]c4c(c3c2)CCNC4)o1 [Example 308-57]
15 | < 0.1 | COc1ccn2ncc(C(=O)Nc3cc(-c4noc([C@H]5C[C@@H]5F)n4)ccc3C)c2c1 [Example 60]
16 | < 0.1 | Cc1ccc(-c2noc([C@H]3C[C@@H]3F)n2)cc1NC(=O)c1cnn2ccc(N3CCNC[C@H]3C)cc12 [Example 195]
17 | 0.1 to 1 | COC(=O)N1CCn2nc(-c3ccc(C)c(NC(=O)c4cnn5ccc(N6CC7(C6)CC(O)(C(F)F)C7)cc45)c3)nc2C1 [Example 324]
18 | > 1 | Cc1ncc(-c2noc(C3CN(C(=O)[C@H]4C[C@@H]4F)C3)n2)cc1NC(=O)c1cnn2ccc(N3CC4(C3)CC(O)(C(F)F)C4)cc12 [Example 281-79]
19 | > 1 | Cc1ccc(-c2noc(C3CN(C(=O)N(C)C)C3)n2)cc1NC(=O)c1cnn2ccc(N3CC4(COC4)C3)cc12 [Example 281-51]
20 | < 0.1 | Cc1ccc(-c2noc([C@H]3C[C@@H]3F)n2)cc1NC(=O)c1cnn2ccc(N3CC4(C3)CC(O)(C(F)(F)F)C4)cc12 [Example 233]
21 | < 0.1 | CC(=O)N1CCN(c2ccn3ncc(C(=O)Nc4cc(-c5noc([C@H]6C[C@@H]6F)n5)ccc4C)c3c2)C[C@H]1C [Example 234]
22 | 0.1 to 1 | Cc1ccc(-c2noc([C@H]3C[C@@H]3F)n2)cc1NC(=O)c1cnn2cc(-c3cn(C45CC(F)(C4)C5)nn3)ccc12 [Example 125]
23 | > 1 | Cc1ncc(-c2nnn(C(C)C)n2)cc1NC(=O)c1cnn2ccc(N3CC4(C3)CC(O)(C(F)F)C4)cc12 [Example 312-6]
24 | 0.1 to 1 | Cc1ccc(-c2noc([C@H]3C[C@@H](OC(F)F)C3)n2)nc1NC(=O)c1cnn2ccc(N3CC4(COC4)C3)cc12 [Example 266]

Tested on: M-07e cells
Assay: M-07e cellular assay (SCF-mediated cell proliferation)
Type: cell-based
Details: Homo sapiens, 72 hours, CellTiter Glo
Method: M-07e cells (Creative Bioarray, CSC-C0249) which endogenously express human c-KIT were used to evaluate the effect of compounds on stem cell factor (SCF)-mediated cell proliferation. M-07e cells were cultured in growth media (RPMI+10% FBS+1% penicillin/streptomycin+10 ng/mL GM-CSF) at 5E5-1.5E6 cells/mL, replenishing media every 3-4 days. 1.5E4 cells were seeded per well in 384 well tissue culture treated plates in 20 μL assay media (RPMI+[…]+1% penicillin/streptomycin) without growth factor stimulation and incubated at 37° C. in a CO2 humidity-controlled incubator. Twenty-four hours later, three-fold serially diluted test compounds in media containing SCF (at the previously determined EC90) were added to the plated M-07e cells and incubated for an additional 72 hours. Cell viability was determined by adding 25 μL CellTiter Glo (Promega) to the cells and the luminescence was measured using a Perkin Elmer Envision plate reader. The EC50 was determined using GraphPad Prism. Percent cell growth was determined after normalizing the curve to the mean RLU high control (no compound control wells) at 100% and the mean RLU low control (no SCF control wells) at 0%.

Row | Structure (SMILES) | EC50 [µM]
25 | Cc1ncc(-c2noc(C3CN(C(=O)C4CC4)C3)n2)cc1NC(=O)c1cnn2ccc(N3CC4(C3)CC(O)(C(F)F)C4)cc12 [Example 281-86] | > 1
26 | Cc1ccc(-c2noc([C@H]3C[C@@H]3F)n2)cc1NC(=O)c1cnc(-c2ccc3nc[nH]c3c2)o1 [Example 308-39] | 0.1 to 1
27 | Cc1ncc(-c2noc(C3(F)CN(C(=O)C(C)(F)F)C3)n2)cc1NC(=O)c1cnn2ccc(N3CC4(C3)CC(O)(C(F)F)C4)cc12 [Example 281-103] | > 1
28 | Cc1ncc(-c2ccc(OC(F)F)cn2)cc1NC(=O)c1cnn2ccc(N3CC4(C3)CC(O)(C(F)F)C4)cc12 [Example 331] | < 0.1
29 | Cc1sc(-c2noc(C3CN(C(=O)[C@H]4C[C@@H]4F)C3)n2)cc1NC(=O)c1cnn2ccc(N3CC4(C3)CC(O)(C(F)F)C4)cc12 [Example 281-127] | > 1
30 | Cc1ccc(-c2ncc(OC(F)(F)F)cn2)cc1NC(=O)c1cnn2ccc(N3CC4(C3)CC(O)(C(F)F)C4)cc12 [Example 315] | < 0.1
31 | Cc1ccc(-c2noc([C@H]3C[C@@H]3F)n2)cc1NC(=O)c1cnn2ccc(N3CC4(CN(C(=O)OC(C)(C)C)C4)C3)cc12 [Example 207] | 0.1 to 1
32 | Cc1ccc(-c2noc([C@H]3C[C@@H]3F)n2)cc1NC(=O)c1ccc2[nH]c(=O)[nH]c2c1 [Example 98-7] | > 1
33 | Cc1ccc(-c2noc([C@H]3C[C@@H]3F)n2)cc1NC(=O)c1cnn2ccc(N3CC4(CNC(=O)C4)C3)cc12 [Example 178] | < 0.1
34 | Cc1ccc(-c2noc([C@H]3C[C@@H](OC(F)F)C3)n2)cc1NC(=O)c1cnn2ccc(N3CC4(CCN(CC(F)F)C4)C3)cc12 [Example 248] | < 0.1
35 | Cc1ccc(-c2noc([C@H]3C[C@@H]3F)n2)cc1NC(=O)c1cnc(-c2ccc3[nH]c(=O)[nH]c3c2)o1 [Example 302] | > 1
36 | Cc1cc(C)c(-c2ccn3ncc(C(=O)Nc4cc(-c5noc([C@H]6C[C@@H]6F)n5)ccc4C)c3c2)cn1 [Example 171-26] | < 0.1
37 | Cc1ccc(-c2noc([C@H]3C[C@@H]3F)n2)cc1NC(=O)c1cnn2ccc(C=O)cc12 [Example 71] | 0.1 to 1
38 | Cc1ccc(-c2noc([C@H]3C[C@@H]3F)n2)cc1NC(=O)c1cnc(-c2ccc3[nH]c4c(c3c2)CCNC4)o1 [Example 308-57] | 0.1 to 1
39 | COc1ccn2ncc(C(=O)Nc3cc(-c4noc([C@H]5C[C@@H]5F)n4)ccc3C)c2c1 [Example 60] | < 0.1
40 | Cc1ccc(-c2noc([C@H]3C[C@@H]3F)n2)cc1NC(=O)c1cnn2ccc(N3CCNC[C@H]3C)cc12 [Example 195] | 0.1 to 1
41 | COC(=O)N1CCn2nc(-c3ccc(C)c(NC(=O)c4cnn5ccc(N6CC7(C6)CC(O)(C(F)F)C7)cc45)c3)nc2C1 [Example 324] | 0.1 to 1
42 | Cc1ncc(-c2noc(C3CN(C(=O)[C@H]4C[C@@H]4F)C3)n2)cc1NC(=O)c1cnn2ccc(N3CC4(C3)CC(O)(C(F)F)C4)cc12 [Example 281-79] | > 1
43 | Cc1ccc(-c2noc(C3CN(C(=O)N(C)C)C3)n2)cc1NC(=O)c1cnn2ccc(N3CC4(COC4)C3)cc12 [Example 281-51] | > 1
44 | Cc1ccc(-c2noc([C@H]3C[C@@H]3F)n2)cc1NC(=O)c1cnn2ccc(N3CC4(C3)CC(O)(C(F)(F)F)C4)cc12 [Example 233] | < 0.1
45 | CC(=O)N1CCN(c2ccn3ncc(C(=O)Nc4cc(-c5noc([C@H]6C[C@@H]6F)n5)ccc4C)c3c2)C[C@H]1C [Example 234] | < 0.1
46 | Cc1ccc(-c2noc([C@H]3C[C@@H]3F)n2)cc1NC(=O)c1cnn2cc(-c3cn(C45CC(F)(C4)C5)nn3)ccc12 [Example 125] | < 0.1
47 | Cc1ncc(-c2nnn(C(C)C)n2)cc1NC(=O)c1cnn2ccc(N3CC4(C3)CC(O)(C(F)F)C4)cc12 [Example 312-6] | < 0.1
48 | Cc1ccc(-c2noc([C@H]3C[C@@H](OC(F)F)C3)n2)nc1NC(=O)c1cnn2ccc(N3CC4(COC4)C3)cc12 [Example 266] | 0.1 to 1
